The supplement of paper PMC5908809

Assays:
[1] = tested on: normal NK cells expanded with K562-aAPC; experiment: percent inhibition of viability; higher = more inhibition; conditions: 72 h, IL-2 2.5 ng/mL
Procedure: (§1)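 Drug sensitivity and resistance testing on K562-aAPC-expanded normal NK cells: 5 concentrations (10-fold steps over a 10,000-fold range), 72 h at 37 °C, viability by CellTiter-Glo normalised to DMSO and benzethonium chloride controls; DSS from the fitted curve.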

[2] = tested on: normal NK cells expanded with K562-aAPC; experiment: drug sensitivity score (DSS) (DSS units); higher = more sensitive; extreme values may be limits of the assay; conditions: 72 h; IL-2 2.5 ng/mL
Procedure: as §1

[3] = tested on: normal primary NK cells, pool 1 (3 donors), resting (IL-2 0 ng/mL); experiment: as above; conditions: 72 h
NK-92 (IL-2 2.5 ng/mL) [4] = experiment: as above; conditions: 72 h
[5] = tested on: normal primary NK cells, pool 1 (3 donors) (IL-2 2.5 ng/mL); experiment: as above; conditions: 72 h
NKL (IL-2 2.5 ng/mL) [6] = experiment: as above; conditions: 72 h
[7] = tested on: normal primary NK cells, pool 3 (3 donors) (IL-2 2.5 ng/mL); experiment: as above; conditions: 72 h
[8] = tested on: normal primary NK cells, pool 2 (3 donors) (IL-2 2.5 ng/mL); experiment: as above; conditions: 72 h
KHYG-1 (IL-2 2.5 ng/mL) [9] = experiment: as above; conditions: 72 h
IMC-1 (IL-2 20 ng/mL) [10] = experiment: as above; conditions: 72 h
NK-YS (IL-2 2.5 ng/mL) [11] = experiment: as above; conditions: 72 h
DERL-7 (IL-2 2.5 ng/mL) [12] = experiment: as above; conditions: 72 h
KAI3 (IL-2 2.5 ng/mL) [13] = experiment: as above; conditions: 72 h
SNK-6 (IL-2 2.5 ng/mL) [14] = experiment: as above; conditions: 72 h
YT (IL-2 2.5 ng/mL) [15] = experiment: as above; conditions: 72 h
[16] = tested on: normal primary NK cells, pool 1 (3 donors), resting (IL-2 0 ng/mL); experiment: percent inhibition of viability; higher = more inhibition; conditions: 72 h
NK-92 (IL-2 2.5 ng/mL) [17] = experiment: as above; conditions: 72 h
[18] = tested on: normal primary NK cells, pool 1 (3 donors) (IL-2 2.5 ng/mL); experiment: as above; conditions: 72 h
NKL (IL-2 2.5 ng/mL) [19] = experiment: as above; conditions: 72 h
[20] = tested on: normal primary NK cells, pool 3 (3 donors) (IL-2 2.5 ng/mL); experiment: as above; conditions: 72 h
[21] = tested on: normal primary NK cells, pool 2 (3 donors) (IL-2 2.5 ng/mL); experiment: as above; conditions: 72 h
KHYG-1 (IL-2 2.5 ng/mL) [22] = experiment: as above; conditions: 72 h
IMC-1 (IL-2 20 ng/mL) [23] = experiment: as above; conditions: 72 h
NK-YS (IL-2 2.5 ng/mL) [24] = experiment: as above; conditions: 72 h
DERL-7 (IL-2 2.5 ng/mL) [25] = experiment: as above; conditions: 72 h
KAI3 (IL-2 2.5 ng/mL) [26] = experiment: as above; conditions: 72 h
SNK-6 (IL-2 2.5 ng/mL) [27] = experiment: as above; conditions: 72 h
YT (IL-2 2.5 ng/mL) [28] = experiment: as above; conditions: 72 h

CC[C@@H]1C(=O)N(C)c2cnc(Nc3ccc(C(=O)N[C@H]4CC[C@H](N5CCN(CC6CC6)CC5)CC4)cc3OC)nc2N1C(C)C [Volasertib] (max concentration tested 1000 nM)
percent inhibition of viability [%]
Conditions | 0.1 nM | 1 nM | 10 nM | 100 nM | 1000 nM
DERL-7 (IL-2 2.5 ng/mL) [25] | 6.13 | 1.89 | 15.1 | 98.3 | 95
IMC-1 (IL-2 20 ng/mL) [23] | -3.21 | -4.2 | 2.24 | 94 | 93.2
KAI3 (IL-2 2.5 ng/mL) [26] | 2.62 | 2.62 | 15 | 38.7 | 51.1
KHYG-1 (IL-2 2.5 ng/mL) [22] | -0.67 | -1.62 | 4.85 | 98.4 | 99.2
NK-92 (IL-2 2.5 ng/mL) [17] | -14.8 | -9.97 | 33.1 | 92 | 82.6
NK-YS (IL-2 2.5 ng/mL) [24] | -1.3 | 1.64 | 5.27 | 59 | 51
NKL (IL-2 2.5 ng/mL) [19] | -8.73 | -9.25 | -5.94 | 65.4 | 40.5
SNK-6 (IL-2 2.5 ng/mL) [27] | 8.84 | 8.4 | 39 | 65.5 | 42.1
YT (IL-2 2.5 ng/mL) [28] | -2.13 | 1.45 | 2.63 | 73.9 | 70.2
[1] | 0.48 | -0.94 | -1.6 | 54.3 | 54.2
[16] | 8.74 | -8.57 | -4.01 | 0.78 | 16
[18] | -2.22 | -7 | -3.63 | -0.83 | 28.3
[20] | -12.7 | -9.54 | -12.6 | -7.36 | 8.33
[21] | -9.16 | -9.48 | -8.67 | -4.83 | 38.6

Conditions | drug sensitivity score
DERL-7 (IL-2 2.5 ng/mL) [12] | 20.2
IMC-1 (IL-2 20 ng/mL) [10] | 17.2
KAI3 (IL-2 2.5 ng/mL) [13] | 8.7
KHYG-1 (IL-2 2.5 ng/mL) [9] | 18.4
NK-92 (IL-2 2.5 ng/mL) [4] | 21.2
NK-YS (IL-2 2.5 ng/mL) [11] | 11.7
NKL (IL-2 2.5 ng/mL) [6] | 11.5
SNK-6 (IL-2 2.5 ng/mL) [14] | 16.3
YT (IL-2 2.5 ng/mL) [15] | 13.8
[2] | 9.75
[3] | 0.37
[5] | 1.12
[7] | 0
[8] | 1.57
